Test results taken from ChEMBL document CHEMBL2331287, “Inhibition of mTOR Kinase and Cancer Treatment” (ACS Med Chem Lett, 2013).

Tests used:
mTORC1 = mTORC1 (Homo sapiens, UniProt P42345); test: Inhibition of mTORC1 in human PC3 cells assessed as reduction in phosphorylated 4E-BP1Thr37/46 level after 90 mins by immunofluorescence assay; format: cell-based, PC-3
[1] = Inhibition of mTORC2 in human PC3 cells assessed as reduction in phosphorylated AKT S473 level after 90 mins by immunofluorescence assay; format: cell-based; settings: PC-3, 1.5 h

Structure (SMILES)	IC50 (mTORC1) [nM]	IC50 [1] [nM]
O=C(c1nnc[nH]1)N1[C@@H]2CC[C@H]1C[C@H](c1nc3c(-c4ccc(-c5ncc[nH]5)nc4)cnn3c3[nH]ccc13)C2	1	1
Cc1n[nH]c2c1c([C@@H]1C[C@H]3CC[C@@H](C1)N3C(=O)c1nnc[nH]1)nc1c(-c3ccc(-c4ccccc4)nc3)cnn12	100	1
